# According to patent US6861236B2, “Export and modification of (poly)peptides in the lantibiotic way” (Applied Nanosystems B.V., priority 2002, dated 2005):
# Tested on: nisin sensitive strain
# Assay: agar well (halo) assay for antibacterial activity
# Format: cell-based
# Settings: Example 5: trypsin-treated ziptipped material/crude supernatant of E. coli SF120 with NisABTC
# Protocol: The above ZIPTIPPED™ material and the crude supernatant is treated after outer membrane disruption with trypsin. This material is applied to the agar well assay to determine antibacterial activity.
# Materials and methods. […] NZ9000+pNG-NisABTC were grown and induced. The supernatant is analyzed as in Example 1. Trypsin treated supernatant was subjected to the agar well assay by pouring the trypsinated supernatant in an agar well and overlaying with a nisin sensitive strain.
# The mutation was checked by PCR and sequencing. The above-generated ΔNisP strain was grown overnight in M17 medium (Terzaghi and Sandine, 1975, Appl. Microbiol. 29: 807-813), diluted 100 fold and grown to OD600 equal to 0.4. […] After 1, 2 and 3 hours, more 0.2 mM pmsf, 0.2 mM TPCK are added and followed by overnight incubation. […] Elution and experiments a) and b).
substance,measurement,value
nisin,antimicrobial activity in the agar well assay,antimicrobial activity
